# Assay: in vitro
# Details: plasma; for % Bound / % Remaining at 3 hours: 3 h, 2 µM
# Experimental: Plasma protein binding (PPB) of Compound 1 was evaluated in plasma from mice, rats, dogs, cynomolgus monkeys, and humans using ultracentrifugation.
# Frozen plasma from CD-1 mice, Sprague-Dawley rats, beagle dogs, cynomolgus monkeys, and humans was purchased and stored at ≤−30° C. On the day of study, plasma samples of CD-1 mice, Sprague-Dawley rats, beagle dogs, cynomolgus monkeys and humans were thawed under running cold tap water and centrifuged to remove any particulates.
# For the internal standard, telmisartan, a 1 mg/mL solution was prepared by dissolving 1.4 mg of telmisartan in 1.4 mL of DMSO, and stored at 4° C.
# The 10 mM stock solution of each test compound was used to prepare 400 μM intermediate stocks in methanol. Then, a 2 μM working stock of each test compound was prepared for plasma from each species (mouse, rat, dog, monkey, and human) by spiking 12 μL of the 400 μM intermediate stock for each test compound into 2400 μL of thawed and prepared plasma from a test species.
# 400 μL of blank plasma for each species was transferred to a 0.5 mL Beckman tube (Part No. 343776, Beckman Coulter Life Sciences, Indianapolis, IN, USA) and centrifuged for 3 hours at 627000×g at 37° C. The supernatant was removed and kept at room temperature.
# To prepare for ultracentrifugation, the rotor of the centrifuge was placed into an incubator and warmed up to 37° C. before centrifugation. The vacuum switch of the OPTIMA™ MAX-TL Ultracentrifuge (Beckman Coulter Life Sciences, Indianapolis, IN, USA) was turned on and the vacuum was reduced to less than 10 microns to warm up the system. The ultracentrifuge's parameters were set to the following: Temperature—37° C.; Time—3 hours; and Speed—627000×g. For each species and each test compound, 2.4 mL of working stock was mixed and pre-incubated for 45 minutes at 37° C. Then, 60 μL was separated and precipitated with 200 μL of acetonitrile containing internal standard and labeled as (TO), and 0.4 mL (triplicates) were transferred to Beckman 2 mL tubes (Part No. 344625, Beckman Coulter Life Sciences, Indiana, IN, USA).
# For each species and each test compound, the triplicate 0.4 mL sample tubes were centrifuged for 3 hours at 627000×g at 37° C. […] At 45 minutes, 60 μL was separated, precipitated with 200 μL of acetonitrile containing internal standard and labelled as (T45). After completion of 3 hours, 60 μL of incubated samples were separated, precipitated with acetonitrile containing internal standard, and labeled as (T3).
# After completing the 3 hours of centrifugation, 30 μl of the top fraction of supernatant from each sample tube was removed (free fraction) and precipitated with acetonitrile containing internal standard (labeled as top sample).
# After removing 30 μL of the top fraction, remaining top and bottom layer were mixed thoroughly to make a uniform mixture. From this mixture, 30 μL of bottom sample was collected and precipitated with acetonitrile containing internal standard (labelled as bottom sample).
# Matrix matching was done for crashed stability samples (TO, T45 and T3 samples) by adding 30 μL of a 50:50 mixture of blank plasma supernatant and phosphate-buffered saline (PBS), and for top and bottom samples, by adding 30 μL of blank plasma (kept at room temperature).
# All the stability samples and centrifuged samples were vortexed at 1000 rpm for 5 minutes and centrifuged at 4000 rpm for 10 minutes. Supernatant from each sample was separated, diluted 2-fold with water, and analyzed in LC-MS/MS.
# Samples (supernatant-free fraction and total plasma) were analyzed by LCMS-MS (no standards).
smiles,measurement,setting,value
"COc1cc(-c2cn(C)c(=O)c(C)c2C)cc(OC)c1CN1CC[C@H](N2CCN(c3ccc(N[C@H]4CCC(=O)NC4=O)cc3F)CC2)C(F)(F)C1 [Compound 1, (S)-3-((4-(4-((S)-1-(2,6-dimethoxy-4-(1,4,5-trimethyl-6-oxo-1,6-dihydropyridin-3-yl)benzyl)-3,3-difluoropiperidin-4-yl)piperazin-1-yl)-3-fluorophenyl)amino)-piperidine-2,6-dione]","fraction unbound at 3 h, 2 µM","CD-1, mouse",0.0339
same,% Bound,"CD-1, mouse",96.61%
same,% Remaining at 3 hours,"CD-1, mouse",84.69%
same,"fraction unbound at 3 h, 2 µM","Sprague-Dawley, rat",0.0971
same,% Bound,"Sprague-Dawley, rat",90.29%
same,% Remaining at 3 hours,"Sprague-Dawley, rat",88.73%
same,"fraction unbound at 3 h, 2 µM","beagle, dog",0.0646
same,% Bound,"beagle, dog",93.54%
same,% Remaining at 3 hours,"beagle, dog",99.38%
same,"fraction unbound at 3 h, 2 µM",human,0.067
same,% Remaining at 3 hours,human,66.87%
same,"fraction unbound at 3 h, 2 µM",monkey,0.0514
same,% Bound,monkey,94.86%
same,% Remaining at 3 hours,monkey,99.14%

# Reference: US20240245677A1, “SELECTED COMPOUNDS FOR TARGETED DEGRADATION OF BRD9” (C4 THERAPEUTICS, INC., priority 2021, published 2024)
